According to patent US20230200390A1, “SELECTIVE HERBICIDES BASED ON SUBSTITUTED ISOXAZOLIN CARBOXAMIDES AND MEFENPYR-DIETHYL” (BAYER AKTIENGESELLSCHAFT, priority 2020, published 2023):

Assays:
Assay type in all cases: in vivo
[1] = tested on: spring barley, HORVS Montoya; test: Tank-mix; post-emergence: crop damage by herbicide with/without safener mefenpyr-diethyl
Protocol: (§1) Seeds of crops (spring wheat, TRZAS; spring barley, HORVS; maize, ZEAMA) were placed in sandy loam soil in peat pots, covered with soil and cultivated in a greenhouse under good growth conditions. Two to three weeks after sowing, the test plants were treated at the 1 to 3-leaf stage. The herbicide/safener active compound combinations according to the invention, formulated as wettable powders or emulsion concentrates, and, in parallel tests, the correspondingly formulated individual active compounds were sprayed onto the green parts of the plants in various dosages using an amount of water of 300 l/ha (converted).
(§2) The pots were returned under good growing conditions in a glasshouse and a visual assessment of herbicidal effects was made at intervals from 1 to 3 weeks after herbicide application (DAT=days after treatment). Assessment was on a percentage basis in comparison with untreated control plants (0%=no injury, 100%=complete kill).

[2] = tested on: spring wheat, TRZAS Triso; test: as above
Protocol: as §1, §2

[3] = tested on: spring barley, HORVS Montoya; test: Seed treatment with safener; post-emergence herbicide, crop damage; conditions: for HER effect + SAF / Reduction [%] / Reduction [Difference]: mefenpyr-diethyl 0.5 g a.i./kg seed
Source text: (§3) For safener seed treatment trials, sufficient seed amounts of the respective crops (spring wheat (TRZAS); spring barley (HORVS)) were weighed into screw cap glass bottles with a minimum volume trice of the seeds.
(§4) As a first step, specified safeners formulated as wettable powder (WP) or wettable granules (WG) were weighed out for the required dosages (g a.i./kg seed), corresponding to the seed amounts. The safener amounts were mixed with a coloured slurry blind formulation type, prediluted with milk at 3.5% fat rate (25 mgs slurry formulation plus 2 ml milk per 10 grams of seed). A tube roller was used for coating. The solutions were gradually pipetted each on the rotating seeds followed by coating for min. 3 hours until all liquid had been soaked up by the seeds. Thereafter, the coated seeds were put flat on open trays for drying over night at room temperature.
(§5) Treated seeds were then placed into pots (7 cm diameter) on the surface of sandy loam, pressed down, flat covered with additional soil and finally covered with sandy soil, also pressed down, watered, and kept under good growth conditions in a greenhouse, until the plants had reached 2-leaf-stage (BBCH 12).
(§6) At that stage, post-emergence application of the specified herbicides was done on:
(§7) a) pot sets containing plants with safener-coated seeds as described above,
(§8) b) as a reference, pot sets of plants without seed treatment.
(§9) The herbicides were formulated as wettable powder (WP). Equivalent to the spray area, compound amounts were weighed out and diluted related to the water application rate (300 l/ha) to an aqueous suspension plus additive (1 l/ha MERO). Dosage related equivalents were conventionally sprayed on trays with the potted plants.
(§10) After application, the test plants were kept under good growth conditions in a greenhouse.
(§11) Assessment timings were 10 and 21 days after treatment (DAT) with the herbicide, by visual scoring of the crop damage in % (comparison of untreated with treated plants, either sprayed only with herbicide or with herbicide on plants with treated seeds).

[4] = tested on: spring wheat, TRZAS Triso; test: as above; conditions: for HER effect + SAF [%] (crop damage) / Reduction [%] / Reduction [Difference]: mefenpyr-diethyl 0.5 g a.i./kg seed; for HER effect [%] (crop damage, herbicide without safener): no safener
Source text: as §3, §4, §5, §6, §7, §8, §9, §10, §11

[5] = HER 2 g a.i./ha + mefenpyr-diethyl 50 g a.i./ha, 10 DAT
[6] = HER 8 g a.i./ha + mefenpyr-diethyl 50 g a.i./ha, 10 DAT
[7] = HER 32 g a.i./ha + mefenpyr-diethyl 100 g a.i./ha, 10 DAT
[8] = herbicide alone 8 g a.i./ha, 10 DAT
[9] = herbicide alone 32 g a.i./ha, 10 DAT
[10] = HER 1.5 g a.i./ha + mefenpyr-diethyl 50 g a.i./ha, 21 DAT
[11] = HER 6 g a.i./ha + mefenpyr-diethyl 50 g a.i./ha, 21 DAT
[12] = HER 24 g a.i./ha + mefenpyr-diethyl 100 g a.i./ha, 21 DAT
[13] = HER 2 g a.i./ha post-emergence, 10 DAT
[14] = HER 8 g a.i./ha post-emergence, 10 DAT
[15] = HER 32 g a.i./ha post-emergence, 10 DAT
[16] = herbicide alone 8 g a.i./ha post-emergence, 10 DAT
[17] = herbicide alone 32 g a.i./ha post-emergence, 10 DAT
[18] = HER 6 g a.i./ha + mefenpyr-diethyl 50 g a.i./ha, 10 DAT
[19] = HER 24 g a.i./ha + mefenpyr-diethyl 100 g a.i./ha, 10 DAT
[20] = herbicide alone 6 g a.i./ha, 10 DAT
[21] = herbicide alone 24 g a.i./ha, 10 DAT
[22] = HER 24 g a.i./ha post-emergence, 10 DAT
[23] = HER 8 g a.i./ha + mefenpyr-diethyl 50 g a.i./ha, 21 DAT
[24] = HER 32 g a.i./ha + mefenpyr-diethyl 100 g a.i./ha, 21 DAT
[25] = herbicide alone 32 g a.i./ha, 21 DAT
[26] = HER 8 g a.i./ha post-emergence, 21 DAT
[27] = HER 32 g a.i./ha post-emergence, 21 DAT

SMILES: COC(=O)C1(C)CC(NC(=O)C2(C(C)(F)F)CC(c3cc(F)cc(F)c3)=NO2)CO1 (mixture of isomers) [Example 1.94]
- HER effect + SAF [1, 5]: 0%
- Reduction [%] [1, 5]: 100%
- Reduction [Difference] [1, 5]: 30
- HER effect + SAF [1, 6]: 30%
- Reduction [%] [1, 6]: 67%
- Reduction [Difference] [1, 6]: 60
- HER effect + SAF [1, 7]: 70%
- Reduction [%] [1, 7]: 22%
- Reduction [Difference] [1, 7]: 20
- HER effect ([1]; herbicide alone 2 g a.i./ha, 10 DAT): 30%
- HER effect [1, 8]: 90%
- HER effect [1, 9]: 90%
- HER effect + SAF [2, 10]: 0%
- Reduction [%] [2, 10]: 100%
- Reduction [Difference] [2, 10]: 20
- HER effect + SAF [2, 11]: 0%
- Reduction [%] [2, 11]: 100%
- Reduction [Difference] [2, 11]: 85
- HER effect + SAF [2, 12]: 10%
- Reduction [%] [2, 12]: 88%
- Reduction [Difference] [2, 12]: 75
- HER effect ([2]; herbicide alone 1.5 g a.i./ha, 21 DAT): 20%
- HER effect ([2]; herbicide alone 6 g a.i./ha, 21 DAT): 85%
- HER effect ([2]; herbicide alone 24 g a.i./ha, 21 DAT): 85%
- HER effect + SAF [3, 13]: 0%
- Reduction [%] [3, 13]: 100%
- Reduction [Difference] [3, 13]: 30
- HER effect + SAF [3, 14]: 20%
- Reduction [%] [3, 14]: 78%
- Reduction [Difference] [3, 14]: 70
- HER effect + SAF [3, 15]: 30%
- Reduction [%] [3, 15]: 67%
- Reduction [Difference] [3, 15]: 60
- HER effect ([3]; herbicide alone 2 g a.i./ha post-emergence, 10 DAT): 30%
- HER effect [3, 16]: 90%
- HER effect [3, 17]: 90%
- HER effect + SAF [%] (crop damage) ([4]; 21 DAT, HER dose 1.5 g a.i./ha): 0%
- Reduction [%] ([4]; 21 DAT, HER dose 1.5 g a.i./ha): 100%
- Reduction [Difference] ([4]; 21 DAT, HER dose 1.5 g a.i./ha): 20
- HER effect [%] (crop damage, herbicide without safener) ([4]; 21 DAT, HER dose 1.5 g a.i./ha): 20%
- HER effect + SAF [%] (crop damage) ([4]; 21 DAT, HER dose 6 g a.i./ha): 10%
- Reduction [%] ([4]; 21 DAT, HER dose 6 g a.i./ha): 88%
- Reduction [Difference] ([4]; 21 DAT, HER dose 6 g a.i./ha): 75
- HER effect [%] (crop damage, herbicide without safener) ([4]; 21 DAT, HER dose 6 g a.i./ha): 85%
- HER effect + SAF [%] (crop damage) ([4]; 21 DAT, HER dose 24 g a.i./ha): 20%
- Reduction [%] ([4]; 21 DAT, HER dose 24 g a.i./ha): 76%
- Reduction [Difference] ([4]; 21 DAT, HER dose 24 g a.i./ha): 65
- HER effect [%] (crop damage, herbicide without safener) ([4]; 21 DAT, HER dose 24 g a.i./ha): 85%

SMILES: CC1(C(=O)NC2COC(C(=O)OCc3ccccc3)C2)CC(c2cccc(F)c2)=NO1 (mixture of isomers) [Example 1.79]
- HER effect + SAF [1, 18]: 0%
- Reduction [%] [1, 18]: 100%
- Reduction [Difference] [1, 18]: 20
- HER effect + SAF [1, 19]: 0%
- Reduction [%] [1, 19]: 100%
- Reduction [Difference] [1, 19]: 70
- HER effect [1, 20]: 20%
- HER effect [1, 21]: 70%
- HER effect + SAF [2, 18]: 0%
- Reduction [%] [2, 18]: 100%
- Reduction [Difference] [2, 18]: 30
- HER effect + SAF [2, 19]: 10%
- Reduction [%] [2, 19]: 80%
- Reduction [Difference] [2, 19]: 40
- HER effect [2, 20]: 30%
- HER effect [2, 21]: 50%
- HER effect + SAF [3, 22]: 40%
- Reduction [%] [3, 22]: 43%
- Reduction [Difference] [3, 22]: 30
- HER effect ([3]; herbicide alone 24 g a.i./ha post-emergence, 10 DAT): 70%
- HER effect + SAF [%] (crop damage) ([4]; 10 DAT, HER dose 24 g a.i./ha): 30%
- Reduction [%] ([4]; 10 DAT, HER dose 24 g a.i./ha): 40%
- Reduction [Difference] ([4]; 10 DAT, HER dose 24 g a.i./ha): 20
- HER effect [%] (crop damage, herbicide without safener) ([4]; 10 DAT, HER dose 24 g a.i./ha): 50%

SMILES: C=CC1(C(=O)NC2COC(C(=O)OC)C2)CC(c2cc(C)cc(F)c2)=NO1 (mixture of isomers) [Example 1.71]
- HER effect + SAF [1, 23]: 20%
- Reduction [%] [1, 23]: 60%
- Reduction [Difference] [1, 23]: 30
- HER effect + SAF [1, 24]: 50%
- Reduction [%] [1, 24]: 29%
- Reduction [Difference] [1, 24]: 20
- HER effect ([1]; herbicide alone 8 g a.i./ha, 21 DAT): 50%
- HER effect [1, 25]: 70%
- HER effect + SAF [2, 6]: 0%
- Reduction [%] [2, 6]: 100%
- Reduction [Difference] [2, 6]: 50
- HER effect + SAF [2, 7]: 20%
- Reduction [%] [2, 7]: 76%
- Reduction [Difference] [2, 7]: 65
- HER effect [2, 8]: 50%
- HER effect [2, 9]: 85%
- HER effect + SAF [3, 26]: 30%
- Reduction [%] [3, 26]: 40%
- Reduction [Difference] [3, 26]: 20
- HER effect + SAF [3, 27]: 40%
- Reduction [%] [3, 27]: 43%
- Reduction [Difference] [3, 27]: 30
- HER effect ([3]; herbicide alone 8 g a.i./ha post-emergence, 21 DAT): 50%
- HER effect ([3]; herbicide alone 32 g a.i./ha post-emergence, 21 DAT): 70%
- HER effect + SAF [%] (crop damage) ([4]; 10 DAT, HER dose 8 g a.i./ha): 0%
- Reduction [%] ([4]; 10 DAT, HER dose 8 g a.i./ha): 100%
- Reduction [Difference] ([4]; 10 DAT, HER dose 8 g a.i./ha): 50
- HER effect [%] (crop damage, herbicide without safener) ([4]; 10 DAT, HER dose 8 g a.i./ha): 50%
- HER effect + SAF [%] (crop damage) ([4]; 10 DAT, HER dose 32 g a.i./ha): 0%
- Reduction [%] ([4]; 10 DAT, HER dose 32 g a.i./ha): 100%
- Reduction [Difference] ([4]; 10 DAT, HER dose 32 g a.i./ha): 85
- HER effect [%] (crop damage, herbicide without safener) ([4]; 10 DAT, HER dose 32 g a.i./ha): 85%

SMILES: COC(=O)C1CC(NC(=O)C2(OC)CC(c3cc(F)cc(F)c3)=NO2)CO1 (mixture of isomers) [Example 1.72]
- HER effect + SAF [1, 6]: 0%
- Reduction [%] [1, 6]: 100%
- Reduction [Difference] [1, 6]: 30
- HER effect + SAF [1, 7]: 10%
- Reduction [%] [1, 7]: 80%
- Reduction [Difference] [1, 7]: 40
- HER effect [1, 8]: 30%
- HER effect [1, 9]: 50%
- HER effect + SAF [2, 24]: 10%
- Reduction [%] [2, 24]: 83%
- Reduction [Difference] [2, 24]: 50
- HER effect [2, 25]: 60%
- HER effect + SAF [3, 14]: 0%
- Reduction [%] [3, 14]: 100%
- Reduction [Difference] [3, 14]: 30
- HER effect + SAF [3, 15]: 0%
- Reduction [%] [3, 15]: 100%
- Reduction [Difference] [3, 15]: 50
- HER effect [3, 16]: 30%
- HER effect [3, 17]: 50%
- HER effect + SAF [%] (crop damage) ([4]; 21 DAT, HER dose 8 g a.i./ha): 0%
- Reduction [%] ([4]; 21 DAT, HER dose 8 g a.i./ha): 100%
- Reduction [Difference] ([4]; 21 DAT, HER dose 8 g a.i./ha): 20
- HER effect [%] (crop damage, herbicide without safener) ([4]; 21 DAT, HER dose 8 g a.i./ha): 20%
- HER effect + SAF [%] (crop damage) ([4]; 21 DAT, HER dose 32 g a.i./ha): 10%
- Reduction [%] ([4]; 21 DAT, HER dose 32 g a.i./ha): 83%
- Reduction [Difference] ([4]; 21 DAT, HER dose 32 g a.i./ha): 50
- HER effect [%] (crop damage, herbicide without safener) ([4]; 21 DAT, HER dose 32 g a.i./ha): 60%
